Assay [1] relates to PC-12. The assay is described as follows: Neuroprotective activity against amyloid beta 42-induced toxicity in rat PC-12 cells assessed as cell viability at 10 uM measured after 6 hrs by MTT assay (reference value: 74.05%). The assay is classed as functional. As to conditions: read-out: Activity. In general terms: Tetrazolium dyes change colour on reduction, which living cells bring about.

In assay [2] the test system is PC-12. Put plainly: Neuroprotective activity against amyloid beta 42-induced toxicity in rat PC-12 cells assessed as cell viability at 4 uM measured after 6 hrs by MTT assay (reference value: 74.05%). As to conditions: read-out: Activity. It counts as functional.
The target of assay [3] is Amyloid-beta precursor protein (Homo sapiens) (UniProt P05067). The assay is described as follows: Inhibition of amyloid beta (1 to 42) (unknown origin) assessed as reduction in peptide aggregation at 4 uM measured after 24 hrs by thioflavin-T fluorescence assay relative to control.
Assay [4] relates to PC-12. The assay is described as follows: Neuroprotective activity against amyloid beta 42-induced toxicity in rat PC-12 cells assessed as cell viability at 2 uM measured after 6 hrs by MTT assay (reference value: 74.05%). It counts as functional. Particulars: read-out: Activity.
Assay [5] has as its target Amyloid-beta precursor protein (Homo sapiens) (UniProt P05067). The assay is described as follows: Inhibition of amyloid beta (1 to 42) (unknown origin) assessed as reduction in peptide aggregation at 10 uM measured after 24 hrs by thioflavin-T fluorescence assay relative to control.
For assay [6] the target is unchanged. The assay is described as follows: Inhibition of amyloid beta (1 to 42) (unknown origin) assessed as reduction in peptide aggregation at 2 uM measured after 24 hrs by thioflavin-T fluorescence assay relative to control.

Square brackets hold non-standard residues; d marks the D form. Peptide text beside a SMILES is read from it. ξ: configuration not given here. Phe(4-NO2) = N[C@@H](Cc1ccc([N+](=O)[O-])cc1)C(=O)O; Phe(4-tBu) = CC(C)(C)c1ccc(C[C@H](N)C(=O)O)cc1; Bip = N[C@@H](Cc1ccc(-c2ccccc2)cc1)C(=O)O; Phe(4-Cl) = N[C@@H](Cc1ccc(Cl)cc1)C(=O)O; Oic(3aξ,7aξ) = O=C(O)[C@@H]1CC2CCCCC2N1; Phe(4-NH2) = Nc1ccc(C[C@H](N)C(=O)O)cc1; Tle = CC(C)(C)[C@H](N)C(=O)O; NMeNva = CCC[C@H](NC)C(=O)O; β3hP = O=C(O)C[C@@H]1CCCN1; Ac5c = NC1(C(=O)O)CCCC1; Abu = CC[C@H](N)C(=O)O

Sequence of Amyloid-beta precursor protein (Homo sapiens) (P05067 whole entry): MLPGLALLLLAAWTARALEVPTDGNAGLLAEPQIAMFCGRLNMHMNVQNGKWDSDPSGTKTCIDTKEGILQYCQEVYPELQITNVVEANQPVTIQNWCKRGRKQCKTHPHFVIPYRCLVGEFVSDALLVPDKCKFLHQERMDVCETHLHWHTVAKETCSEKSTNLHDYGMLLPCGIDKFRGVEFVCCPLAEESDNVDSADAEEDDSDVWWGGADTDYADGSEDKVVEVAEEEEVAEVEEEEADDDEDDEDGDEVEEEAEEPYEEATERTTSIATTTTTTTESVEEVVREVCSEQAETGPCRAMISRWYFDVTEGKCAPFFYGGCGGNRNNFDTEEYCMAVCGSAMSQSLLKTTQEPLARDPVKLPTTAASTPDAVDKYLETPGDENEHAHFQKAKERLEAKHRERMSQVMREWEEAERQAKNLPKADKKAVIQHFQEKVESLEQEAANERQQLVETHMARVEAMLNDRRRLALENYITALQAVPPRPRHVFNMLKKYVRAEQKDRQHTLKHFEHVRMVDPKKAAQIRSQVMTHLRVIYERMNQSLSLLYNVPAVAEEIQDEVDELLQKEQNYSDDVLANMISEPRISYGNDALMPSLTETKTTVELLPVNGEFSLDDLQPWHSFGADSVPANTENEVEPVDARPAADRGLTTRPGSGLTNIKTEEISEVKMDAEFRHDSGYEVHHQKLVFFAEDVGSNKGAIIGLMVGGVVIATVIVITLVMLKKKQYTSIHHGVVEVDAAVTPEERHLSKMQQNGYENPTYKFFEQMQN

As to `CC[C@H](C)[C@H](NC(=O)[C@@H]1CC2CCCCC2N1C(=O)[C@@H]1CC2CCCCC2N1)C(=O)N[C@@H](C)C(=O)O` (stereo partly drawn) (H-[Oic(3aξ,7aξ)][Oic(3aξ,7aξ)]IA-OH), the viability at 10 µM in the assay on PC-12 [1] worked out at 88.5%. Besides, the viability at 4 µM with PC-12 [2] worked out at 92.9%. The values for the inhibition in assay [3], in assay [5] and in assay [6] were 99.1%, 91.5% and 100%, respectively. Also, the viability at 2 µM in the assay with PC-12 [4] came out at 93.2%.

With `CC[C@H](C)[C@H](NC(=O)C[C@@H]1CCCN1C(=O)[C@@H](N)C(C)C)C(=O)N[C@@H](C)C(=O)O` (H-V[β3hP]IA-OH), the viability at 10 µM with PC-12 [1] was 66.4%. In addition, the viability at 4 µM with PC-12 [2] turned out to be 80.4%. The inhibition in assay [3] was 99.2%; in assay [5], 100%; in assay [6], 96.1%. The viability at 2 µM in the assay with PC-12 [4] came out at 91.1%.

Take `CC[C@H](C)[C@H](NC(=O)[C@@H](NC(=O)[C@@H](N)Cc1ccc(N)cc1)C(C)C)C(=O)N[C@@H](C)C(=O)O` (H-[Phe(4-NH2)]VIA-OH): the viability at 10 µM in the assay on PC-12 [1] came out at 82.1%. Further, the viability at 4 µM in the assay with PC-12 [2] was determined as 70.3%. Also, the inhibition in assay [3] was 68.4%; in assay [5], 77.4%; in assay [6], 59.2%. Further, the viability at 2 µM with PC-12 [4] is 77.8%.

As for `CC(C)[C@H](N)C(=O)N[C@H](C(=O)N[C@H](C(=O)N[C@@H](C)C(=O)O)C(C)(C)C)C(C)C` (H-VV[Tle]A-OH), the viability at 10 µM in the assay on PC-12 [1] came out at 82.7%. In the assay with PC-12 [2], the viability at 4 µM was 69.2%. For the same molecule, the inhibition in assay [3], in assay [5] and in assay [6] was 0% throughout. The viability at 2 µM in the assay with PC-12 [4] came to 78.1%.

As to `CC[C@H](C)[C@H](NC(=O)CNC(=O)CN)C(=O)N[C@@H](C)C(=O)O` (H-GGIA-OH), in the assay on PC-12 [1], the viability at 10 µM is 66.8%. Also, the viability at 4 µM with PC-12 [2] amounted to 72.8%. For the same molecule, the inhibition worked out at 95.2% in assay [3], 98.3% in assay [5] and 93.6% in assay [6]. Besides, the viability at 2 µM with PC-12 [4] came to 100%.

On to `CCC[C@@H](C(=O)N[C@@H](C)C(=O)O)N(C)C(=O)[C@@H](NC(=O)[C@@H](N)C(C)C)C(C)C` (H-VV[NMeNva]A-OH), for which the viability at 10 µM in the assay on PC-12 [1] worked out at 82.1%. The viability at 4 µM with PC-12 [2] is 83.7%. The figures for the inhibition in assay [3], in assay [5] and in assay [6] were 34.9%, 40.8% and 22.2%, respectively. Besides, the viability at 2 µM in the assay with PC-12 [4] was 87.3%.

Turning to `CC[C@H](NC(=O)[C@@H](NC(=O)[C@@H](NC(=O)[C@@H](N)C(C)C)C(C)C)[C@@H](C)CC)C(=O)O` (H-VVI[Abu]-OH), the viability at 10 µM in the assay with PC-12 [1] is 65.6%. For the same molecule, the viability at 4 µM in the assay with PC-12 [2] came out at 73.4%. Besides, the inhibition amounted to 2% in assay [3], 32.5% in assay [5] and 2.8% in assay [6]. Besides, the viability at 2 µM in the assay with PC-12 [4] came to 77.9%.

Consider `CC(C)[C@H](N)C(=O)N[C@H](C(=O)NC[C@@H]1CCCN1[C@@H](C)C(=O)O)C(C)C`, for which the viability at 10 µM in the assay on PC-12 [1] came to 58.8%. For the same molecule, in the assay with PC-12 [2], the viability at 4 µM was determined as 64.7%. Moreover, the inhibition was found to be 0% in assay [3], 11.9% in assay [5] and 0% in assay [6]. In addition, the viability at 2 µM in the assay on PC-12 [4] was 72%.

As for `CC[C@H](C)[C@H](NC(=O)[C@@H](NC(=O)[C@@H](N)Cc1ccc(Cl)cc1)C(C)C)C(=O)N[C@@H](C)C(=O)O` (H-[Phe(4-Cl)]VIA-OH), in the assay on PC-12 [1], the viability at 10 µM came out at 72.3%. Moreover, the viability at 4 µM in the assay on PC-12 [2] is 73.9%. The inhibition is 57.4% in assay [3], 75.8% in assay [5] and 46.4% in assay [6]. The viability at 2 µM with PC-12 [4] came to 80.1%.

For `CC[C@H](C)[C@H](NC(=O)[C@@H](NC(=O)[C@@H](N)C(C)C)C(C)C)C(=O)N[C@@H](CCC(N)=O)C(=O)O` (H-VVIQ-OH), the viability at 10 µM with PC-12 [1] came out at 74.6%. The viability at 4 µM in the assay with PC-12 [2] turned out to be 75.2%. Moreover, the inhibition turned out to be 26.5% in assay [3], 23.4% in assay [5] and 24.2% in assay [6]. In addition, the viability at 2 µM with PC-12 [4] worked out at 76.9%.

Consider `CC[C@H](NC(=O)[C@@H](N)C(C)C)C(=O)N[C@H](C(=O)N[C@@H](C)C(=O)O)[C@@H](C)CC` (H-V[Abu]IA-OH), for which, in the assay with PC-12 [1], the viability at 10 µM came to 82.7%. Further, the viability at 4 µM in the assay on PC-12 [2] was determined as 70.8%. In addition, the inhibition in assay [3] came to 5.3%; in assay [5], 24.1%; in assay [6], 0%. In addition, the viability at 2 µM in the assay with PC-12 [4] is 90.1%.

For the molecule `CC[C@H](C)[C@H](NC(=O)[C@@H](NC(=O)[C@@H](N)Cc1ccc(C(C)(C)C)cc1)C(C)C)C(=O)N[C@@H](C)C(=O)O` (H-[Phe(4-tBu)]VIA-OH), the viability at 10 µM in the assay with PC-12 [1] was 80.2%. The viability at 4 µM in the assay with PC-12 [2] came to 87.3%. For the same molecule, the inhibition was found to be 57.4% in assay [3], 42% in assay [5] and 78.6% in assay [6]. In the assay with PC-12 [4], the viability at 2 µM was 93.6%.

Regarding `CC[C@H](C)[C@H](NC(=O)[C@@H](NC(=O)[C@@H](N)Cc1ccc(-c2ccccc2)cc1)C(C)C)C(=O)N[C@@H](C)C(=O)O` (H-[Bip]VIA-OH), the viability at 10 µM with PC-12 [1] came out at 83.2%. The viability at 4 µM with PC-12 [2] was 80.6%. In addition, the inhibition stood at 34.7% in assay [3], 12.9% in assay [5] and 26.4% in assay [6]. The viability at 2 µM with PC-12 [4] was 86.5%.

For the molecule `CC[C@H](NC(=O)[C@@H](NC(=O)[C@@H](N)C(C)C)C(C)C)C(=O)N[C@@H](C)C(=O)O` (H-VV[Abu]A-OH), in the assay with PC-12 [1], the viability at 10 µM turned out to be 89.2%. In addition, the viability at 4 µM in the assay on PC-12 [2] amounted to 94.9%. The figures for the inhibition in assay [3], in assay [5] and in assay [6] were 0%, 4.4% and 0%, respectively. Besides, in the assay on PC-12 [4], the viability at 2 µM stood at 89.1%.

For `CC[C@H](C)[C@H](NC(=O)[C@@H](NC(=O)[C@@H](N)C(C)C)C(C)C)C(=O)N[C@@H](CC(N)=O)C(=O)O` (H-VVIN-OH), the viability at 10 µM in the assay with PC-12 [1] was 69.2%. Also, the viability at 4 µM with PC-12 [2] was determined as 67.4%. Moreover, the inhibition is 59.9% in assay [3], 71.5% in assay [5] and 38.6% in assay [6]. The viability at 2 µM in the assay on PC-12 [4] is 93.6%.

As for `CC[C@H](C)[C@H](NC(=O)C1(NC(=O)[C@@H](N)C(C)C)CCCC1)C(=O)N[C@@H](C)C(=O)O` (H-V[Ac5c]IA-OH), the viability at 10 µM in the assay with PC-12 [1] was 100%. The viability at 4 µM in the assay on PC-12 [2] was determined as 97.1%. Besides, the inhibition in assay [3], in assay [5] and in assay [6] was 100% throughout. Further, in the assay on PC-12 [4], the viability at 2 µM worked out at 89%.

In the case of `CC[C@H](C)[C@H](NC(=O)[C@@H](NC(=O)[C@@H](N)Cc1ccc([N+](=O)[O-])cc1)C(C)C)C(=O)N[C@@H](C)C(=O)O` (H-[Phe(4-NO2)]VIA-OH), in the assay with PC-12 [1], the viability at 10 µM turned out to be 73.7%. For the same molecule, the viability at 4 µM in the assay on PC-12 [2] was determined as 100%. Further, the inhibition in assay [3] came to 78.4%; in assay [5], 50.4%; in assay [6], 94.8%. Also, in the assay on PC-12 [4], the viability at 2 µM came to 94.1%.

Take `CC[C@H](C)[C@H](NC(=O)[C@@H](NC(=O)C[C@H](N)c1ccccc1)C(C)C)C(=O)N[C@@H](C)C(=O)O`: in the assay with PC-12 [1], the viability at 10 µM stood at 58.8%. Also, the viability at 4 µM in the assay with PC-12 [2] came out at 66.3%. Also, the inhibition in assay [3] stood at 58.2%; in assay [5] it was 67.3%; in assay [6] it was 50.1%. The viability at 2 µM in the assay on PC-12 [4] was found to be 69.1%.

The term inhibition denotes the drop in the measured response relative to a control, in per cent.

These data come from ChEMBL document CHEMBL4732135, “Structural and mechanistic insights into the inhibition of amyloid-β aggregation by Aβ fragment derived synthetic peptides” (Eur J Med Chem, 2021).
